Source: patent US10611775B2, “Thiophene derivatives” (TIANJIN HEMAY PHARMACEUTICAL CO., LTD., priority 2009, dated 2020)

What was measured:
PDE4D2 = biological target: T1, PDE4D2 (Homo sapiens, UniProt Q08499); assay: Inhibitory activity of PDE4 enzyme (hydrolysis of cAMP), PDE4D2; type: biochemical; details: cAMP 5 μM, 37° C., 15 min to 30 min, AMP by HPLC-MS
T1 construct: purchased BPS bioscience 60043
Method: (§1) (1) The inhibitory actions of compounds on activity of hydrolyzing cAMP with PDE4 enzyme were assayed by the inhibitory activity of PDE4 enzyme. The procedures are described as follows.
(§2) Humanized PDE4A1A, PDE4B1 and PDE4D2 were purchased from BPS bioscience (catalogue Nos.: 60040, 60041 and 60043, respectively). The enzyme reactions were carried out in 10 mM Tris-HCl (pH 7.4) and 1 mM MgCl2. The concentration of cAMP was 5 μM. The reaction was maintained at 37° C. for 15 min to 30 min so that the consumption of the substrate was controlled within 20%. The reaction was quenched with equal volume of acetonitrile. The production amount of the […] AMP was measured by HPLC-MS. The inhibitory activity of compounds on PDE4 enzyme was obtained by comparing the production amounts of the AMP in the experimental groups having the compounds with those of the control groups having no compounds.

[1] = test system: TNFα release by PBMCs stimulated by LPS; assay: Inhibition of TNFα release by mononuclear cells (PBMCs) stimulated by LPS; type: cell-based; details: compound 1 hour before LPS, further 20 hours, TNFα in supernate by ELISA
Excerpt: 1. Effects of Mononuclear Cells (PBMCs) Stimulated by LPS on TNFα
The research in respect of cytokine TNFα release by PBMCs in the human peripheral blood after stimulated by lipopolysaccharide (LPS) can be carried out in vitro. The research method for inhibiting cytokine TNFα release by PBMCs upon stimulation by LPS with the pharmaceutical active ingredients in the present application is described as follows.
PBMCs are obtained from heparin treated blood of at least three volunteer donors. The heparin treated blood of at least three volunteer donors was subject to gradient separation of the known method to obtain PBMCs. The PBMCs were collected and washed with 1640 medium (10% fetal bovine serum, 2 mM L-glutamine, […] mercaptoethanol, 50 μg/ml streptomycin and 50 U/ml penicillin) three times. The PBMCs was added into a 24-well plate and prepared with a concentration of 1×10^6 cell/ml with 1640 medium. A compound to be tested was dissolved in dimethylsulfoxide and prepared as a solution of the compound to be tested with a required concentration. The solution was added into the cell cultures. After incubated in a CO2 incubator (5% CO2, 90% humidity) for 1 hour, LPS (Sigma) was added until […] (except for the control).
After the medium was further incubated for 20 hours, the content of TNFα in the supernate of the PBMCs medium was measured by the standard method with commercial ELISA kit (U. S Genzyme Co). The inhibition ratio of TNFα was calculated by the measured value of control well without treated by active ingredients and the measured value of the test well using the test compound. The concentration of generating 50% inhibition of the TNFα release (IC50 value) was calculated with nonlinear regression analysis. Each concentration was measured twice simultaneously and an average value was calculated.

PDE4B1 = biological target: T2, PDE4B1 (Homo sapiens, UniProt Q07343); assay: Inhibitory activity of PDE4 enzyme (hydrolysis of cAMP), PDE4B1; type: biochemical; details: cAMP 5 μM, 37° C., 15 min to 30 min, AMP by HPLC-MS
T2 construct: purchased BPS bioscience 60041
Method: as §1, §2

PDE4A1A = biological target: T3, PDE4A1A (Homo sapiens, UniProt P27815); assay: Inhibitory activity of PDE4 enzyme (hydrolysis of cAMP), PDE4A1A; type: biochemical; details: cAMP 5 μM, 37° C., 15 min to 30 min, AMP by HPLC-MS
T3 construct: purchased BPS bioscience 60040
Method: as §1, §2

PDE2A = biological target: T4, PDE2A (Homo sapiens, UniProt O00408); assay: Inhibitory activity of PDE2 (selectivity of PDE enzyme); type: biochemical; details: cAMP 5 μM, 37° C., 30 min, AMP by HPLC-MS
T4 construct: purchased BPS bioscience 60020
Method: (2) Inhibitory Activity of PDE2 (Selectivity of PDE Enzyme):
as §2, with “PDE2A was” for “PDE4A1A, PDE4B1 and PDE4D2 were”, “No.: 60020).” for “Nos.: 60040, 60041 and 60043, respectively).”, “reaction was” for “reactions were”, “μM,” for “μM.”, “for” for “for 15 min to”, “PDE2” for “PDE4 enzyme”

T2 sequence (Q07343 whole entry): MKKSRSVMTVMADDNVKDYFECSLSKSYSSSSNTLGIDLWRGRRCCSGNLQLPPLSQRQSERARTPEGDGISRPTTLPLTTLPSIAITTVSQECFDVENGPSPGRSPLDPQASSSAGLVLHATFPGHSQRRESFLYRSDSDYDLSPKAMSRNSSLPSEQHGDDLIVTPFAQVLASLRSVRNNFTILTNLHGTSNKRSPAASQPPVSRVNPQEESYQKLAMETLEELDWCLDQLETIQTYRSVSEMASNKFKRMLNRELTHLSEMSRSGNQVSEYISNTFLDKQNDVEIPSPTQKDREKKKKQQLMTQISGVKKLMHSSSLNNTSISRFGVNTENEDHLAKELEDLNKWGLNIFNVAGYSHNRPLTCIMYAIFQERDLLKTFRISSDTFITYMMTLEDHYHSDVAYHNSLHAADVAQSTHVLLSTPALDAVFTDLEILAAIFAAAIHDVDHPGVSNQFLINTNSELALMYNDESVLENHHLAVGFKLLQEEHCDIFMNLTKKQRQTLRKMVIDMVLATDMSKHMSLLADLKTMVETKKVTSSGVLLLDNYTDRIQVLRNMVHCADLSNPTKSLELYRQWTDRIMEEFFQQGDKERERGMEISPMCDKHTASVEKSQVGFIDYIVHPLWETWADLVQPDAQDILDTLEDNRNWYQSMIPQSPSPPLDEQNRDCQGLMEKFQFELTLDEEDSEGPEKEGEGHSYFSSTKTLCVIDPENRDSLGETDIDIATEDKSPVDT
T1 sequence (Q08499 303-809): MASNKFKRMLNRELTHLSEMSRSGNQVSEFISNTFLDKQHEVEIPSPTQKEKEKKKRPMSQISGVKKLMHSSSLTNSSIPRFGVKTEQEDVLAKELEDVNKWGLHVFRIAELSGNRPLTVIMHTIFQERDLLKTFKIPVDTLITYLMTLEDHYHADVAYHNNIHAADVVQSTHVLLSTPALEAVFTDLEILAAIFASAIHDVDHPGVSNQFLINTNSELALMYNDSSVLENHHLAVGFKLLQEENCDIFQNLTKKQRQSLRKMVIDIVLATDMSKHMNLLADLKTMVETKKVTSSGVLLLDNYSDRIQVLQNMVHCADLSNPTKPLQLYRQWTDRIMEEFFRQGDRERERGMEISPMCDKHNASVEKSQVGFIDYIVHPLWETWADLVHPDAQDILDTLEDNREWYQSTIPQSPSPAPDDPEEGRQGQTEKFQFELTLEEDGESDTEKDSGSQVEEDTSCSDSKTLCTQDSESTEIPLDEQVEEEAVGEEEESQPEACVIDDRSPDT
T3 sequence (P27815 1-647 isoform P27815-4): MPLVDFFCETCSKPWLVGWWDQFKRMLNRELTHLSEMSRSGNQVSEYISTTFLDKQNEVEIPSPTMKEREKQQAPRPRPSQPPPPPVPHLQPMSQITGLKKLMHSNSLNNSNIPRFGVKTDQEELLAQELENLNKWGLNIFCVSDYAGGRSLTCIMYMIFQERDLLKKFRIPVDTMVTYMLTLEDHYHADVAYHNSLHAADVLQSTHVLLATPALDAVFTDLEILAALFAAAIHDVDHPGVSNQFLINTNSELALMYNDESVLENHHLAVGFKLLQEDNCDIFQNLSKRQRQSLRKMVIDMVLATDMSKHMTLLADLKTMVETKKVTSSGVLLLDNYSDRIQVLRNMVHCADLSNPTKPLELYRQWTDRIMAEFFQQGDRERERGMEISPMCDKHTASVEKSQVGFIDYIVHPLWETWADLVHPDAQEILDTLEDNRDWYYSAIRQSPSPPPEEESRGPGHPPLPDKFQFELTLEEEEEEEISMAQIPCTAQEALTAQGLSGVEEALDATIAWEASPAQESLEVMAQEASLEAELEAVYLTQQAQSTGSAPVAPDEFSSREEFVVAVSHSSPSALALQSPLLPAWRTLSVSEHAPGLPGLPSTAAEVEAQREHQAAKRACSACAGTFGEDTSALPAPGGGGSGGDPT
T4 sequence (O00408 whole entry): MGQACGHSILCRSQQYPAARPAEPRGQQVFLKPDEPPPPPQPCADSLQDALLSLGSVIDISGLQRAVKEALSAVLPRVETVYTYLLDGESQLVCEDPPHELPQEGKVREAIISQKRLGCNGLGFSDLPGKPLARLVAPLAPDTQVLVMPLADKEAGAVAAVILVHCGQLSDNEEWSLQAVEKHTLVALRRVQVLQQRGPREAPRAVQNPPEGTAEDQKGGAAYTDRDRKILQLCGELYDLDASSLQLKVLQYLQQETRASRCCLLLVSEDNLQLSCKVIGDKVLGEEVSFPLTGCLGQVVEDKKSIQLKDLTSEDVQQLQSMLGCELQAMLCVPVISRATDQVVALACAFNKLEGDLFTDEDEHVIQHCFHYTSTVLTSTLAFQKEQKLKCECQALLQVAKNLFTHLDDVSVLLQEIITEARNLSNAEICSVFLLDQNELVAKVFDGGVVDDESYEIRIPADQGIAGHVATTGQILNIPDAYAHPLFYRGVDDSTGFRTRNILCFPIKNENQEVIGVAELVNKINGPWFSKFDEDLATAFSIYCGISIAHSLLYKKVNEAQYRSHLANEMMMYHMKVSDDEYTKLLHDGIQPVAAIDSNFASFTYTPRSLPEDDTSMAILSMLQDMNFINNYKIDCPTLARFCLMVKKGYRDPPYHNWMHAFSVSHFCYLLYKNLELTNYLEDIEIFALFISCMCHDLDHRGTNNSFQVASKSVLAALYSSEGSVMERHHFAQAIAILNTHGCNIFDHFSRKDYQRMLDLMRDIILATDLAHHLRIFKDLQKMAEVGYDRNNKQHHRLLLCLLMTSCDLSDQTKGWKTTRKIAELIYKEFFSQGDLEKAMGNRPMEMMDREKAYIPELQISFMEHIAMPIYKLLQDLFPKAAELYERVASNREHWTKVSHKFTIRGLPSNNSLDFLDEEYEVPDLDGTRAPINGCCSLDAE

Row | IC50 (PDE4D2) | IC50 (PDE4B1) | IC50 (PDE4A1A) | IC50 (PDE2A) | Compound | IC50 ([1]; Homo sapiens, PBMC) | IC50 ([1]; human PBMCs)
1 | 1900 nM | 212 nM | – | – | CCOc1cc(C(CS(C)(=O)=O)N2C(=O)c3csc(N)c3C2=O)ccc1OC (stereo not shown) [Example 2, 5-(1-(3-ethoxy-4-methoxyphenyl)-2-(methylsulfonyl)ethyl)-1-amino-5H-thiophene[3,4-c]pyrrole-4,6-diketone] | 524 nM | –
2 | 224 nM | 256 nM | 208 nM | 36000 nM | CCOc1cc(C(CS(C)(=O)=O)N2C(=O)c3csc(NC(C)=O)c3C2=O)ccc1OC (stereo not shown) [Example 3, N-(5-(1-(3-ethoxy-4-methoxyphenyl)-2-(methylsulfonyl)ethyl)-4,6-dioxo-5,6-dihydro-4H-thiophene[3,4-c]pyrrole-1-yl)acetamide] | – | 296 nM
3 | 329 nM | 1200 nM | 366 nM | – | CCOc1cc(C(CS(C)(=O)=O)N2C(=O)c3cscc3C2=O)ccc1OC (stereo not shown) [Example 4, 5-(1-(3-ethoxy-4-methoxyphenyl)-2-(methylsulfonyl)ethyl)-5H-thiophene[3,4-c]pyrrole-4,6-diketone] | 886 nM | –
4 | – | 368 nM | – | – | CCOc1cc([C@@H](CS(C)(=O)=O)N2C(=O)c3cscc3C2=O)ccc1OC [Example 5, (S)-5-(1-(3-ethoxy-4-methoxyphenyl)-2-(methylsulfonyl)ethyl)-5H-thiophene[3,4-c]pyrrole-4,6-diketone] | 376 nM | –
5 | 315 nM | 2300 nM | – | – | CCOc1cc([C@H](CS(C)(=O)=O)N2C(=O)c3cscc3C2=O)ccc1OC [Example 6, (R)-5-(1-(3-ethoxy-4-methoxyphenyl)-2-(methylsulfonyl)ethyl)-5H-thiophene[3,4-c]pyrrole-4,6-diketone] | 2500 nM | –
6 | 831 nM | 5300 nM | – | – | COc1ccc(C(CS(C)(=O)=O)N2C(=O)c3cscc3C2=O)cc1OCc1ccccc1 (stereo not shown) [Example 9, 5-(1-(3-phenylmethoxy-4-methoxyphenyl)-2-(methylsulfonyl)ethyl)-5H-thiophene[3,4-c]pyrrole-4,6-diketone] | 7500 nM | –
7 | – | 1000 nM | – | – | COc1ccc(C(CS(C)(=O)=O)N2C(=O)c3csc(N)c3C2=O)cc1OCc1ccccc1 (stereo not shown) [Example 11, 5-(1-(3-phenylmethoxy-4-methoxyphenyl)-2-(methylsulfonyl)ethyl)-1-amino-5H-thiophene[3,4-c]pyrrole-4,6-diketone] | > 10000 nM | –
8 | – | 1200 nM | – | – | COc1ccc(C(CS(C)(=O)=O)N2C(=O)c3csc(NC(C)=O)c3C2=O)cc1OCc1ccccc1 (stereo not shown) [Example 12, N-(5-(1-(3-phenylmethoxy-4-methoxyphenyl)-2-(methylsulfonyl)ethyl)-4,6-dioxo-5,6-dihydro-4H-thiophene[3,4-c]pyrrole-1-yl)acetamide] | > 10000 nM | –
9 | – | 618 nM | – | – | CCOc1cc(C(CS(C)(=O)=O)N2C(=O)c3csc(NC(=O)CCl)c3C2=O)ccc1OC (stereo not shown) [Example 18, 2-chloro-N-(5-(1-(3-ethoxy-4-methoxyphenyl)-2-(methylsulfonyl)ethyl)-4,6-diketone-5,6-dihydro-4H-thiophene[3,4-c]pyrrole-1-yl)acetamide] | 216 nM | –
10 | – | 167 nM | – | – | CCOc1cc(C(CS(C)(=O)=O)N2C(=O)c3csc(NS(C)(=O)=O)c3C2=O)ccc1OC (stereo not shown) [Example 19, N-(5-(1-(3-ethoxy-4-methoxyphenyl)-2-(methylsulfonyl)ethyl)-4,6-diketone-5,6-dihydro-4H-thiophene[3,4-c]pyrrole-1-yl)methanesulfonamide] | 288 nM | –
11 | – | – | – | – | CCOc1cc([C@@H](CS(C)(=O)=O)N2C(=O)c3csc(N)c3C2=O)ccc1OC [Example 21, (S)-1-amino-5-(1-(3-ethoxy-4-methoxyphenyl)-2-(methylsulfonyl)ethyl)-5H-thiophene[3,4-c]pyrrole-4,6-diketone] | – | 142 nM
12 | 55 nM | 718 nM | – | – | CCOc1cc([C@H](CS(C)(=O)=O)N2C(=O)c3csc(N)c3C2=O)ccc1OC [Example 23, (R)-1-amino-5-(1-(3-ethoxy-4-methoxyphenyl)-2-(methylsulfonyl)ethyl)-5H-thiophene[3,4-c]pyrrole-4,6-diketone] | 1900 nM | –
13 | 114 nM | 178 nM | 104 nM | > 50000 nM | CCOc1cc([C@@H](CS(C)(=O)=O)N2C(=O)c3csc(NC(C)=O)c3C2=O)ccc1OC [Example 24, (S)—N-(5-(1-(3-ethoxy-4-methoxyphenyl)-2-(methylsulfonyl)ethyl)-4,6-dioxo-5,6-dihydro-4H-thiophene[3,4-c]pyrrole-1-yl)acetamide] | – | 65 nM
14 | – | – | – | – | CCOc1cc([C@H](CS(C)(=O)=O)N2C(=O)c3csc(NC(C)=O)c3C2=O)ccc1OC [Example 25, (R)—N-(5-(1-(3-ethoxy-4-methoxyphenyl)-2-(methylsulfonyl)ethyl)-4,6-dioxo-5,6-dihydro-4H-thiophene[3,4-c]pyrrole-1-yl)acetamide] | – | 1190 nM
15 | – | – | – | – | CCOc1ccc(C(CS(C)(=O)=O)N2C(=O)c3csc(NC(C)=O)c3C2=O)cc1OC (stereo not shown) [Example 26, N-(5-(1-(3-methoxy-4-ethoxyphenyl)-2-(methylsulfonyl)ethyl)-4,6-dioxo-5,6-dihydro-4H-thiophene[3,4-c]pyrrole-1-yl)acetamide] | – | > 10000 nM

Row | Compound | IC50 (PDE4D2) | IC50 (PDE4B1) | IC50 (PDE4A1A) | IC50 (PDE2A) | IC50 ([1]; Homo sapiens, PBMC) | IC50 ([1]; human PBMCs)
16 | CCOc1cc([C@@H](CS(C)(=O)=O)N2C(=O)c3csc([N+](=O)[O-])c3C2=O)ccc1OC [Example 20, (S)-1-nitro-5-(1-(3-ethoxy-4-methoxyphenyl)-2-(methylsulfonyl)ethyl)-5H-thiophene[3,4-c]pyrrole-4,6-diketone] | – | 26 nM | – | – | – | –
